Test results reported in patent US4892875A, “Substituted heterocyclylalkyl esters of 1,4-dihydropyridine-3,5-dicarboxylic acids” (Takeda Chemical Industries, Ltd., priority 1982, dated 1990).

Experiment: Acute toxicity in male and female Wistar rats
Details: in vivo; oral; male rat; observed 7 days
Experimental: 2-(4-Benzhydryl-1-piperazinyl)ethyl methyl 2,6-dimethyl-4-(3-nitrophenyl)-1,4-dihydropyridine-3,5-dicarboxylate dihydrochloride was suspended in a 5% solution of gum arabic and orally administered to male and female Wistar rats aged 5 weeks (body weight 105 to 139 g) in a dose of 62.5, 125, 250, 500 and 1000 mg/kg (in groups of 4 to 8) and each animal so treated was observed over a period of 7 days.

SMILES: COC(=O)C1=C(C)NC(C)=C(C(=O)OCCN2CCN(C(c3ccccc3)c3ccccc3)CC2)C1c1cccc([N+](=O)[O-])c1.Cl.Cl (stereo not shown) [2-(4-Benzhydryl-1-piperazinyl)ethyl methyl 2,6-dimethyl-4-(3-nitrophenyl)-1,4-dihydropyridine-3,5-dicarboxylate dihydrochloride]
- LD50 at 168 h: 250 to 500 mg/kg
